This passage reports Agonistic activity and IC50 results from ChEMBL document CHEMBL1131078, “Small molecular probes for G-protein-coupled C5a receptors: conformationally constrained antagonists derived from the C terminus of the human plasma protein C5a” (J Med Chem, 1998).

Molecules are shown by their SMILES. Calls of active or inactive are those of the source. The rule behind the calls is not given here. Where a SMILES comes first, the peptide text is derived from it.

The IC50 is the midpoint of a concentration-inhibition curve.

For one test, the species on record is Homo sapiens. Description: Agonist activity at dose range 0.1 nM to 1 mM in human PMNs; No agonistic activity. The test is classed as functional.
Test [1] has as its target T1, C5a anaphylatoxin chemotactic receptor 1 (Homo sapiens, UniProt P21730).
T1 sequence (P21730 whole entry): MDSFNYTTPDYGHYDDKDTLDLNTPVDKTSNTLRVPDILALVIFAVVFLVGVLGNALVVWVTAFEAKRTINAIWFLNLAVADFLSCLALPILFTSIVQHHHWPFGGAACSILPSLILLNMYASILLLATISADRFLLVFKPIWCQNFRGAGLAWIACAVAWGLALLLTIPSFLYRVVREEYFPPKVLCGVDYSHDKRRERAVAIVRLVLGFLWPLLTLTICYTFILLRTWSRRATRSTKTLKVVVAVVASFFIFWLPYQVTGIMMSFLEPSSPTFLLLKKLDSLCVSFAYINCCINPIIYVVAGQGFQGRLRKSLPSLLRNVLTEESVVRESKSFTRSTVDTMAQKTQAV
Description: 50% reduction in myeloperoxidase secretion from human PMNs mediated by 100 nM C5a.

The target of test [2] is T1, C5a anaphylatoxin chemotactic receptor 1. Kind of test: 50% reduction in binding of [125I]C5a to human polymorphonuclear cells (PMNs). The test is classed as cell-based, PMN.

In the case of `CN[C@@H](Cc1ccccc1)C(=O)N[C@@H](CCCCN)C(=O)N1CCC[C@H]1C(=O)N[C@@H](CC1CCCCC1)C(=O)N[C@@H](Cc1c[nH]c2ccccc12)C(=O)N[C@@H](CCCN=C(N)N)C(=O)O`, the Agonistic activity result in the test listed under Homo sapiens was “inactive”.
Take `CN[C@@H](Cc1ccccc1)C(=O)N[C@@H](CCCCN)C(=O)N1CCC[C@H]1C(=O)N[C@@H](CC(C)C)C(=O)N[C@@H](Cc1c[nH]c2ccccc12)C(=O)N[C@@H](CCCN=C(N)N)C(=O)O` (HELM PEPTIDE1{[meF].K.P.L.W.R}$$$$V2.0): in test [1], the IC50 was > 1000 µM.
Turning to `CN[C@@H](Cc1ccccc1)C(=O)N[C@@H](CCCCN)C(=O)N1CCC[C@H]1C(=O)N[C@H](CC1CCCCC1)C(=O)N[C@@H](Cc1c[nH]c2ccccc12)C(=O)N[C@H](CCCN=C(N)N)C(N)=O`, the Agonistic activity result in the test listed under Homo sapiens is “inactive”.
In the case of `CC(=O)N[C@@H](Cc1ccccc1)C(=O)N[C@H]1CCCNC(=O)[C@@H](CCCN=C(N)N)NC(=O)[C@H](Cc2c[nH]c3ccccc23)NC(=O)[C@@H](CC2CCCCC2)NC(=O)[C@@H]2CCCN2C1=O`, in the test listed under Homo sapiens, the Agonistic activity entry is “inactive”.
As for `CN[C@@H](Cc1ccccc1)C(=O)N[C@@H](CCCCN)C(=O)N1CCC[C@H]1C(=O)N[C@H](CC1CCCCC1)C(=O)N[C@@H](Cc1c[nH]c2ccccc12)C(=O)N[C@@H](CCCN=C(N)N)C(=O)O`, in the test filed under Homo sapiens, the Agonistic activity result was “inactive”.
As to `CC(=O)N[C@@H](Cc1ccccc1)C(=O)N[C@H]1CCCCNC(=O)[C@H](CCCN=C(N)N)NC(=O)[C@H](Cc2c[nH]c3ccccc23)NC(=O)[C@@H](CC2CCCCC2)NC(=O)[C@@H]2CCCN2C1=O`, the Agonistic activity entry in the test listed under Homo sapiens is “inactive”.
For `CC[C@H](C)[C@H](N)C(=O)N[C@@H](CO)C(=O)N[C@@H](Cc1cnc[nH]1)C(=O)N[C@@H](CCCCN)C(=O)N[C@@H](CC(=O)O)C(=O)N[C@@H](CCSC)C(=O)N[C@@H](CCC(N)=O)C(=O)N[C@@H](CC(C)C)C(=O)NCC(=O)N[C@@H](CCCNC(=N)N)C(=O)O` (H-ISHKDMQLGR-OH), the IC50 in test [2] was > 1000 µM.
